Values after ≈ are worked out from the molar mass of the structure shown.
Legend:
E. coli ATCC 25922 = experiment: MIC, E. coli ATCC 25922; type: cell-based; settings: Table 18, Ec
S. aureus ATCC 13709 = experiment: MIC, S. aureus ATCC 13709; type: cell-based; settings: Table 18, Sa

| SMILES | MIC Ec (E. coli ATCC 25922) | MIC Sa (S. aureus ATCC 13709) |
| --- | --- | --- |
| CNc1cc(F)cc2c1[nH]c1nc(Oc3ccc(C)nc3)nc(N3CC4CC(C)NC4C3)c12 (stereo not shown) [Compound 10.79] | ≤ 0.5 µg/mL | ≤ 0.5 µg/mL |
| CNc1cc(F)cc2c1[nH]c1nc(Oc3cnc(C)nc3)nc(N3CCC4(CC3)CC4CN)c12 (stereo not shown) [Compound 10.80] | 2 µg/mL (≈ 4.32 µM) | 0.06 µg/mL (≈ 0.13 µM) |
| CNc1cc(F)c(F)c2c1[nH]c1nc(Oc3cnc(C(C)O)nc3)nc(N3CC4(CC[C@]4(C)N)C3)c12 (stereo partly shown) [Compound 10.81] | 0.5 µg/mL (≈ 1.01 µM) | ≤ 0.5 µg/mL |
| CNc1cc(F)cc2c1[nH]c1nc(Oc3cnc(C(C)O)nc3)nc(N3CC4CC(C3)C4N)c12 (stereo not shown) [Compound 10.82] | 0.5 µg/mL (≈ 1.08 µM) | 0.13 µg/mL (≈ 0.28 µM) |
| CNc1cc(F)cc2c1[nH]c1nc(Oc3cnc4c(c3)C(=O)N(C)C4C)nc(N3CC4(CC[C@H]4N)C3)c12 (stereo partly shown) [Compound 10.83] | 1 µg/mL (≈ 1.99 µM) | ≤ 0.5 µg/mL |
| C=Cc1cc(F)cc2c1[nH]c1nc(Oc3cnc(C)nc3)nc(N3C[C@H]4C[C@@H]3C[C@H]4N)c12 [Compound 10.84] | ≤ 0.5 µg/mL | ≤ 0.5 µg/mL |
| CNc1cc(F)c(Cl)c2c1[nH]c1nc(Oc3cnc4ccnn4c3)nc(N3C[C@H]4C[C@@H]3C[C@H]4N)c12 [Compound 10.85] | ≤ 0.5 µg/mL | ≤ 0.5 µg/mL |
| CNc1cc(F)c(Cl)c2c1[nH]c1nc(Oc3cnc4ccnn4c3)nc(N3C[C@H]4C[C@@H](N)[C@H]4C3)c12 [Compound 10.86] | 0.25 µg/mL (≈ 0.506 µM) | ≤ 0.5 µg/mL |
| CNc1cc(F)c(Cl)c2c1[nH]c1nc(Oc3cnc([C@@H](C)O)nc3)nc(N3C[C@H]4C[C@@H]3C[C@H]4N)c12 [Compound 10.87] | ≤ 0.5 µg/mL | ≤ 0.5 µg/mL |
| CNc1cc(F)c(Cl)c2c1[nH]c1nc(Oc3cnc([C@@H](C)O)nc3)nc(N3CC4(CC[C@@H]4N)C3)c12 [Compound 10.88] | ≤ 0.5 µg/mL | ≤ 0.5 µg/mL |
| CCc1cc(F)cc2c1[nH]c1nc(Oc3cnc(C)nc3)nc(N3C[C@H]4C[C@@H]3C[C@H]4N)c12 [Compound 10.89] | 2 µg/mL (≈ 4.61 µM) | ≤ 0.5 µg/mL |
| CNc1cc(F)c(Cl)c2c1[nH]c1nc(Oc3cnc4ccnn4c3)nc(N3CC4(CC[C@]4(C)N)C3)c12 [Compound 10.90] | ≤ 0.5 µg/mL | ≤ 0.5 µg/mL |
| CNc1cc(F)cc2c1[nH]c1nc(Oc3cnc(C(C)C#N)nc3)nc(N3C[C@H]4C[C@@H]3C[C@H]4N)c12 (stereo partly shown) [Compound 10.91] | > 16 µg/mL | 4 µg/mL (≈ 8.45 µM) |
| CNc1cc(F)c(F)c2c1[nH]c1nc(Oc3cnc(C)nc3)nc(N3CC[C@]4(CC[C@H]4N)C3)c12 [Compound 10.92] | ≤ 0.5 µg/mL | ≤ 0.5 µg/mL |
| CNc1cc(F)c(F)c2c1[nH]c1nc(Oc3cnc([C@H](C)O)nc3)nc(N3CC[C@]4(CC[C@H]4N)C3)c12 [Compound 10.93] | ≤ 0.5 µg/mL | ≤ 0.5 µg/mL |
| CNc1cc(F)c(Cl)c2c1[nH]c1nc(Oc3cnc4ccnn4c3)nc(N3CC4(CC[C@@H]4N)C3)c12 [Compound 10.94] | ≤ 0.5 µg/mL | ≤ 0.5 µg/mL |
| CNc1cc(F)c(F)c2c1[nH]c1nc(Oc3cnc(C(C)C#N)nc3)nc(N3C[C@H]4C[C@@H]3C[C@H]4N)c12 (stereo partly shown) [Compound 10.95] | ≤ 0.5 µg/mL | ≤ 0.5 µg/mL |
| CNc1cc(F)cc2c1[nH]c1nc(Oc3ccc4cncnc4c3)nc(N3C[C@H]4C[C@@H]3C[C@H]4N)c12 [Compound 10.96] | ≤ 0.5 µg/mL | ≤ 0.5 µg/mL |
| CNc1cc(F)cc2c1[nH]c1nc(Oc3ccc4cncnc4c3)nc(N3C[C@H]4C[C@@H]3C[C@H]4N)c12 [Compound 10.97] | 2 µg/mL (≈ 4.25 µM) | ≤ 0.5 µg/mL |
| CNc1cc(F)cc2c1[nH]c1nc(Oc3cnc(N(C)N)nc3)nc(N3C[C@H]4C[C@@H]3C[C@H]4N)c12 [Compound 10.98] | ≤ 0.5 µg/mL | ≤ 0.5 µg/mL |
| CNc1cc(F)cc2c1[nH]c1nc(Oc3cnc(C)nc3)nc(N3CC4CC(OS(N)(=O)=O)C4C3)c12 (stereo not shown) [Compound 10.99] | ≤ 0.5 µg/mL | ≤ 0.5 µg/mL |
| CNc1cc(F)cc2c1[nH]c1nc(Oc3cnc(C(C)O)nc3)nc(N(C)C)c12 (stereo not shown) [Compound 10.101] | ≤ 0.5 µg/mL | ≤ 0.5 µg/mL |
| CNc1ncc(Oc2nc(N3CCC4(CC[C@H]4N)C3)c3c(n2)[nH]c2c(NC)cc(F)cc23)cn1 (stereo partly shown) [Compound 10.102] | ≤ 0.5 µg/mL | ≤ 0.5 µg/mL |
| CNc1cc(F)c(F)c2c1[nH]c1nc(Oc3cnc(C(C)O)nc3)nc(N3CC4(CCCC4N)C3)c12 (stereo not shown) [Compound 10.103] | ≤ 0.5 µg/mL | ≤ 0.5 µg/mL |
| CNc1cc(F)cc2c1[nH]c1nc(Oc3cnc(C)nc3)nc(N3CCC(S(N)(=O)=O)C3)c12 (stereo not shown) [Compound 10.104] | 8 µg/mL (≈ 16.9 µM) | ≤ 0.5 µg/mL |
| CNc1cc(F)cc2c1[nH]c1nc(Oc3cnc(CN)nc3)nc(N3CCC4(CC[C@H]4N)C3)c12 (stereo partly shown) [Compound 10.105] | 1 µg/mL (≈ 2.16 µM) | ≤ 0.5 µg/mL |
| CNc1cc(F)c(F)c2c1[nH]c1nc(Oc3cnc(C)nc3)nc(N3CCC(S(N)(=O)=O)C3)c12 (stereo not shown) [Compound 10.106] | 2 µg/mL (≈ 4.08 µM) | ≤ 0.5 µg/mL |
| CNc1cc(F)c(F)c2c1[nH]c1nc(Oc3cnc(C)nc3)nc(N3CCOCC3)c12 [Compound 10.107] | ≤ 0.5 µg/mL | ≤ 0.5 µg/mL |
| CNc1cc(F)cc2c1[nH]c1nc(Oc3cnc4c(c3)C(=O)N(C)C4O)nc(N3C[C@H]4C[C@@H]3C[C@H]4N)c12 (stereo partly shown) [Compound 10.108] | > 16 µg/mL | ≤ 0.5 µg/mL |

From patent US10865216B2, “Tricyclic Gyrase inhibitors” (MERCK SHARP & DOHME CORP., priority 2012, dated 2020)
